The results in this text go back to article PMC10709327, “A class of secreted mammalian peptides with potential to expand cell-cell communication” (Nature Communications, 2023).

Values joined by “and” are separate entries in the source; they are usually repeats but may differ in a detail not shown here. Identical values can stand only once. Where a SMILES comes first, the peptide text is derived from it. [ ]: non-standard residue; d: D form. pGlu = O=C1CC[C@@H](C(=O)O)N1

In data set [1] the test system is diet-induced obese male mice. The data set can be described thus: Metabolic chamber studies after a single dose (food intake, RER, movement, VO2, VCO2). The data set is classed as in vivo, mouse. Particulars: single dose 50 mg/kg intraperitoneal. As for the experimental part:
Fig. 5 Functional studies of […] in feeding and energy balance in mice. a Schematic of the primary amino acid sequence for full-length mouse GDF15 preproprotein and annotation of CAP-GDF15 sequence as well as the canonical GDF15 hormone sequence. b–d Food intake (b), respiratory exchange ratio (RER, c), and ambulatory activity (d) of 12–16-week diet-induced obese male mice following a single treatment of CAP-GDF15 (50 mg/kg, intraperitoneal) or vehicle control. e–g Food intake (e), RER (f), and ambulatory activity (g) of 12–16-week diet-induced obese male mice following a single treatment of scrambled CAP-GDF15 (50 mg/kg, intraperitoneal, scrambled sequence: pGlu-[…]-NH2) or vehicle control. h, i 3-day food intake (h) and body weight (i) of 12–16-week diet-induced obese male mice following treatment with CAP-GDF15 or scrambled CAP-GDF15 (50 mg/kg/day, IP), or vehicle control. […] For (b-i), p values were calculated by two-way ANOVA. Source data are provided as a Source Data file.
Animal experiments were performed according to a procedure approved by the Stanford University Administrative Panel on Laboratory Animal Care. Mice were maintained in 12-h light-dark cycles at 22 °C and about 50% relative humidity and fed a standard irradiated rodent diet. Where indicated, a high-fat diet (D12492, Research Diets 60% kcal from fat) was used. Male C57BL/6 J (stock number 000664) and male C57BL/6 J DIO mice were purchased from the Jackson Laboratory (stock number 380050). For studies in high-fat diet-fed mice, peptides were dissolved in 18:1:1 (by volume) of saline:Kolliphor EL (Sigma Aldrich):DMSO and administered to mice by intraperitoneal injections at a volume of 10 µl/g at the indicated doses for the indicated times. For lipopolysacchardide injection, LPS (Sigma, #L2880-10MG) was dissolved in saline and administered to mice at a volume of 5 µl/g at indicated dose. For fasting, food was removed from mice for 16 h. For running, a six-lane Columbus Instruments animal treadmill (product 1055-SRM-D65) was used with following 1 h protocol: 10 min at 6 m/min, 50 min at 18 m/min, and increase every 2 min by 2 m/min for the last 10 minutes, all at 12° incline. For all treatment experiments, mice were mock injected with the vehicle for 3–5 days until body weights were stabilized. Heparin plasma was harvested by submandibular bleed. For all experiments, mice were randomly assigned to treatment groups. Experimenters were not blinded to groups.
For acute energy expenditure studies, food intake, RER, movement, VO2, and VCO2 were collected with CLAMS Oxymax Metabolic Cages. Mice were placed in individual metabolic cages for 24 hours prior to experiment. Mice were injected with either vehicle, 50 mg/kg CAP-GDF15, 50 mg/kg uncapped CAP-GDF15, or 50 mg/kg scrambled CAP-GDF15 at 5 pm at T = 0. […] All experiments were done with 3–5 month old DIO mice (Jackson, stock 380050), fed high-fat diet ad libitum.
(§1) Supplementary Figure 5. Additional measurements from metabolic chambers of mice treated with CAP-GDF15. a CAP-GDF15 plasma concentration after administration of CAP-GDF15 (50 mg/kg, intraperitoneal) or vehicle control. b-c VO2 (b) and VCO2 (c) of 12-16-week diet-induced obese male mice following a single treatment of CAP-GDF15 (50 mg/kg, intraperitoneal) or vehicle control. d-e VO2 (d) and VCO2 (e) of 12-16-week diet-induced obese male mice following a single treatment of scrambled CAP-GDF15 (50 mg/kg, intraperitoneal, scrambled sequence: p[…]-NH2) or vehicle control. f Acute food intake of 12-16-week diet-induced obese male mice following a single treatment of CAP-GDF15 (50 mg/kg, intraperitoneal), uncapped CAP-GDF15 (50 mg/kg, intraperitoneal), or vehicle control. For (a), N=3/group; (b-c), N=12/group; for (d-e), N=8/group; for (f), N=5/group.
(§2) For (a-f), injection occurred at time T=0 (5:00pm). Data are shown as means ± SEM. For (b-i), p values were calculated by two-way ANOVA. Source data are provided as a Source Data

Data set [2] in a line: CAP-GDF15 plasma concentration after administration. It counts as in vivo, mouse. Particulars: for Plasma concentration after administration (Supplementary Figure 5a): 50 mg/kg, unit not given. As for the experimental part:
To test this possibility, we administered a single dose of CAP-GDF15 (50 mg/kg, intraperitoneally) to diet-induced obese mice and measured whole body parameters of energy balance in metabolic chambers. At this dose, concentrations of plasma CAP-GDF15 rose by 5-fold from baseline at 30 min post-administration (Supplementary Fig. 5A). […] A corresponding and expected suppression of respiratory exchange ratio (RER) was also observed (Fig. 5c).
as §1, §2

Setting [3] is: diet-induced obese male mice, N = 12/group.

Consider `CC(C)C[C@H](NC(=O)[C@@H]1CCC(=O)N1)C(=O)N[C@@H](CCC(=O)O)C(=O)N[C@@H](CC(C)C)C(=O)N[C@@H](CCCNC(=N)N)C(=O)N[C@@H](CC(C)C)C(=O)N[C@@H](CCCNC(=N)N)C(=O)N[C@H](C(=O)N[C@@H](C)C(=O)N[C@@H](C)C(=O)NCC(=O)N[C@@H](CCCNC(=N)N)C(N)=O)C(C)C` [CAP-GDF15] ([pGlu]LELRLRVAAGR-NH2), for which the “suppression of food intake compared to vehicle-treated mice” value in data set [1] (12–16-week diet-induced obese male mice, 16 h after injection, N = 12 mice/group) is listed as ~ 60%. For the same compound, in data set [1] (setting [3]), the “effect on carbon dioxide production (VCO2)” value is “did not alter”. Moreover, in data set [1] (setting [3]), the “effect on oxygen consumption (VO2)” value is recorded as “did not alter”. Further, the “effect on movement (ambulatory activity)” value in data set [1] (diet-induced obese male mice, N = 12 mice/group) is reported as “did not alter”. Further, the “effect on respiratory exchange ratio (RER)” value in data set [1] (diet-induced obese male mice, metabolic chambers) is listed as “suppression”. Also, the “rise of plasma CAP-GDF15 concentration from baseline” value in data set [2] (50 mg/kg intraperitoneal, 30 min post-administration, N = 3/group) is ~ 5 fold and 5 fold. The “Plasma concentration after administration (Supplementary Figure 5a)” value in data set [2] (0 minutes (same values as vehicle), animal 1) was found to be 2.565; in data set [2] (0 minutes (same values as vehicle), animal 2) it was 0.7876; in data set [2] (0 minutes (same values as vehicle), animal 3), 0.4564; in data set [2] (10 minutes, animal 1), 3.639; in data set [2] (10 minutes, animal 2), 4.514; in data set [2] (10 minutes, animal 3), 3.221. Further, the “Plasma concentration after administration (Supplementary Figure 5a)” value came to 2.641 in data set [2] (30 minutes, animal 1); 3.3984 in data set [2] (30 minutes, animal 2); 2.342 in data set [2] (30 minutes, animal 3); 0.6432 in data set [2] (60 minutes, animal 1); 0.7838 in data set [2] (60 minutes, animal 2); 0.7186 in data set [2] (60 minutes, animal 3). Besides, the Cmax in data set [2] (mouse, plasma, ip, 50 mg/kg intraperitoneal, from approximately 1 nM endogenous level, read-out: maximum plasma concentration after dosing, as read from the figure by a reviewer) was 4 nM.
